# Measurements reported in patent US6828475B1, “Nucleic acid sequences encoding a plant cytoplasmic protein involved in fatty acyl-CoA metabolism” (Calgene LLC, priority 1994, dated 2004).
# Columns and labels:
# [1] = tested on: jojoba wax synthase; assay: Wax synthase assay in jojoba microsomal membrane fraction; assay type: biochemical; settings: for Wax synthase Activity, Acyl Group: 80 μM acyl-CoA substrate, 100 μM radiolabeled oleyl alcohol; for Wax synthase Activity, Acyl Group / Wax synthase Activity, Alcohol Group: microsomal membrane fraction; for Wax synthase Activity, Alcohol Group: 100 μM alcohol substrate, 40 μM radiolabeled eicosenoyl-CoA
# Experimental: Wax synthase activity in a microsomal membrane preparation is measured by incubation of 40 μM [1-^14C] acyl-CoA (usually palmitoyl-CoA, sp. act. 5.1-5.6 mCi/mmol) and 200 μM oleyl alcohol with the sample to be assayed in a total volume of 0.25 ml. The incubation mixture also contains 20% w/v glycerol, 1 mM DTT, 0.5M NaCl and is buffered with 25 mM HEPES (4-[2-hydroxyethyl]-1-piperazineethane-sulfonic acid). HEPES, here and as referred to hereafter is added from a 1M stock solution adjusted to pH 7.5.
# A substrate mixture is prepared in a glass vial, with oleyl alcohol being added immediately before use, and is added to samples. Incubation is carried out at 30° C. for one hour. The assay is terminated by placing the assay tube on ice and immediately adding 0.25 ml isopropanol:acetic acid (4:1 v/v). Unlabeled wax esters (0.1 mg) and oleyl alcohol (0.1 mg) are added as carriers. The [^14C] lipids are extracted by the scaled-down protocol of Hara and Radin (Anal. Biochem. (1978) 90:420). Four ml of hexane/isopropanol (3:2, v/v) is added to the terminated assay. The sample is vortexed, 2 ml of aqueous sodium sulphate solution (6.6% w/v) is added, and the sample is again vortexed.
# 1. Extensive Analysis: Following addition of the sodium sulphate and vortexing the sample, the upper organic phase is removed and the lower aqueous phase is washed with 4 ml hexane/isopropanol (7:2 v/v). The organic phases are pooled and evaporated to dryness under nitrogen. The lipid residue is resuspended in a small volume of hexane, and an aliquot is assayed for radioactivity by liquid scintillation counting. The remainder of the sample can be used for TLC analysis of the labeled classes and thereby give a measure of total wax produced.
# For lipid class analysis the sample is applied to a silica TLC plate, and the plate is developed in hexane/diethyl ether/acetic acid (80:20:1 v/v/v). The distribution of radioactivity between the lipid classes, largely wax esters, free fatty acids, fatty alcohols, and polar lipids at the origin, is measured using an AMBIS radioanalytic imaging system (AMBIS Systems Inc., San Diego, Calif.). If necessary the individual lipid classes can be recovered from the TLC plate for further analysis. Reversed-phase TLC systems using C18 plates developed in methanol have also been used for the analysis.
# 2. Quick Analysis: Following addition of the sodium sulfate and vortexing the sample, a known percentage of the organic phase is removed and counted via liquid scintillation counting. This calculation is used to estimate the total counts in the organic phase. Another portion of the organic phase is then removed, dryed down under nitrogen, redissolved in hexane and spotted on TLC plates and developed and scanned as described for the detailed assay. In this manner the percentage of the total counts which are incorporated into wax is determined.
# Acyl-CoA and alcohol substrates having varying carbon chain lengths and degrees of unsaturation were added to a microsomal membrane fraction having wax synthase activity to determine the range of substrates recognized by the jojoba wax synthase. Wax synthase activity was measured as described in Example 1, with acyl specificity measured using 80 μM of acyl-CoA substrate and 100 μM of radiolabeled oleyl alcohol. Alcohol specificity was measured using 100 μM of alcohol substrate and 40 μM of radiolabeled eicosenoyl-CoA.
# [2] = molecular target: palmitoyl-ACP
# [3] = tested on: NADH-dependent fatty acyl-CoA reductase; assay: NADH-dependent fatty acyl-CoA reductase assay, solubilized microsomal membranes; assay type: biochemical, Euglena gracilis; settings: in the assay at levels above the CMC (approximately 0.5% (w/v))
# Experimental: For example, an NADH-dependent fatty acyl-CoA reductase activity can be obtained from microsomal membranes isolated from Euglena gracilis. Methods which may be used to isolate microsomal membranes are described, for example in the published PCT patent application WO 92/14816 (application number PCT/US92/03164, filed Feb. 21, 1992). The reductase activity is solubilized from these membranes using the same approaches as used for jojoba reductase and wax synthase. Membranes are incubated on ice for one hour with various amounts of the detergent, CHAPS, in a buffering solution consisting of 25 mM BisTris, pH 6.9, 250 mM NaCl, 10% glycerol and 1 mM EDTA. The sample is then centrifuged at 200,000×g for one hour, and the supernatant and pellet fractions assayed for NADH-dependent reductase activity using radiolabeled palmitoyl-CoA and NADH as substrates. A convenient assay for reductase activity is described in PCT patent application WO 92/14816. Incubation of the membranes with 0.3, 0.5 or 0.7 % (w/v) CHAPS results in retention of reductase activity in the supernatant fractions, indicative of solubilization of the enzyme. If CHAPS is omitted during the incubation and centrifugation, all of the reductase activity is found in the pellet fraction. All of the samples are diluted ten-fold in this same buffer solution prior to assaying in order to dilute the CHAPS present during the incubation.
Compound,"Wax synthase Activity, Acyl Group [1] [pmol/min]","Wax synthase Activity, Alcohol Group [1] [pmol/min]",also measured
palmitoyl-ACP,,,wax synthase activity relative to acyl-CoA ([1]; as acyl substrate): ~10 % of that with acyl-CoA
CCCCCCCCCCCCCCCCCC(=O)SCCNC(=O)CCNC(=O)[C@H](O)C(C)(C)COP(=O)(O)OP(=O)(O)OC[C@H]1O[C@@H](n2cnc3c(N)ncnc32)[C@H](O)[C@@H]1OP(=O)(O)O [18:0],51,56,
jojoba wax synthase (microsomal membrane fraction having wax synthase activity) (pool or library),,,wax synthase activity (% of that with acyl-CoA) [2]: 10
CCCCCCCCCCCCCCCC(=O)SCCNC(=O)CCNC(=O)[C@H](O)C(C)(C)COP(=O)(O)OP(=O)(O)OC[C@H]1O[C@@H](n2cnc3c(N)ncnc32)[C@H](O)[C@@H]1OP(=O)(O)O [16:0],81,107,
"C[C@H](CCC(=O)NCCC[N+](C)(C)CCCS(=O)(=O)[O-])[C@H]1CC[C@H]2[C@@H]3[C@H](O)C[C@@H]4C[C@H](O)CC[C@]4(C)[C@H]3C[C@H](O)[C@]12C [CHAPS, 3-[(3-cholamidopropyl)-dimethyl-ammonio]-1-propanesulfonate]",,,effect on reductase enzyme activity [3]: inhibition of enzyme activity
O=C(O)c1cc[c]([Hg][OH])cc1 [para-hydroxymercuribenzoate],,,effect of sulphydryl agents on wax synthase activity (inhibition) [1]: Inhibition; reversal of inhibition of wax synthase activity ([1]; subsequent addition of DTT): could be reversed
CCCCCCCCCCCCCCCCCCCCCC(=O)SCCNC(=O)CCNC(=O)[C@H](O)C(C)(C)COP(=O)(O)OP(=O)(O)OC[C@H]1O[C@@H](n2cnc3c(N)ncnc32)[C@H](O)[C@@H]1OP(=O)(O)O [22:0],46,17,
CCCCCCCCCCCCCCCCCCCC(=O)SCCNC(=O)CCNC(=O)[C@H](O)C(C)(C)COP(=O)(O)OP(=O)(O)OC[C@H]1O[C@@H](n2cnc3c(N)ncnc32)[C@H](O)[C@@H]1OP(=O)(O)O [20:0],49,21,
CCNC(=O)/C=C\C(N)=O [N-ethylmaleamide],,,effect of sulphydryl agents on wax synthase activity (inhibition) [1]: much less effective
CCCCCCCCCCCCCCCC(=O)SCCNC(=O)CCNC(=O)[C@H](O)C(C)(C)COP(=O)(O)OP(=O)(O)OC[C@H]1O[C@@H](n2cnc3c(N)ncnc32)[C@H](O)[C@@H]1OP(=O)(O)O [palmitoyl-CoA],,,wax synthase activity towards acyl-thioester substrates ([1]; as acyl substrate): greatest activity
CCCCCCCCCCCCCCCC(=O)SCCNC(C)=O [N-acetyl-S-palmitoyl cysteamine],,,wax synthase activity towards acyl-thioester substrates ([1]; as acyl substrate): no activity was detectable
NC(=O)CI [Iodoacetamide],,,effect of sulphydryl agents on wax synthase activity (inhibition) [1]: much less effective
CCCCCCCCCCCC(=O)SCCNC(=O)CCNC(=O)[C@H](O)C(C)(C)COP(=O)(O)OP(=O)(O)OC[C@H]1O[C@@H](n2cnc3c(N)ncnc32)[C@H](O)[C@@H]1OP(=O)(O)O [12:0],12,100,
CCCCCCCCCCCCCC(=O)SCCNC(=O)CCNC(=O)[C@H](O)C(C)(C)COP(=O)(O)OP(=O)(O)OC[C@H]1O[C@@H](n2cnc3c(N)ncnc32)[C@H](O)[C@@H]1OP(=O)(O)O [14:0],95,145,
